Source: patent US20250009819A1, “NOVEL PROBIOTICS AND USE THEREOF” (PBLBIOLAB CO., LTD., priority 2021, published 2025)

How the values were obtained:
[1] = Antioxidant activity (DPPH, in vitro); type: biochemical; settings: DPPH 0.2 mM; lactic acid bacteria suspension 1×10^8 CFU/ml; 37° C. 20 min
In short: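 Lactic acid bacteria suspension (1×10^8 CFU/ml) or vitamin C (1 g/ml) was mixed with 0.2 mM ethanolic DPPH and incubated 20 min at 37° C. After centrifugation, supernatant absorbance at 517 nm gave the antioxidant activity.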

TNF-α = TNF-α expression in LPS-treated macrophages (ELISA); type: cell-based, C57BL/6 mice; settings: macrophages treated with lactic acid bacteria and LPS for 24 hours
In short: (§1)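 Peritoneal macrophages were elicited in male C57BL/6 mice (6 weeks) by i.p. 4% thioglycolate and harvested 96 h later. Cells at 0.5×10^6/well were treated with lactic acid bacteria plus LPS for 24 h. Cytokines in the supernatant were quantified by ELISA.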

IL-10 = IL-10 expression in LPS-treated macrophages (ELISA); type: cell-based, C57BL/6 mice; settings: macrophages treated with lactic acid bacteria and LPS for 24 hours
In short: as §1

Clostridium difficile = Clostridium difficile proliferation in gut microbiota (PCR); type: cell-based; settings: for Gut microbiota Inhibition of difficile bacteria proliferation: human feces culture, lactic acid bacteria 1×10^6 CFU/mL, anaerobic 24 hr
In short: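 Human fecal supernatant, diluted 10,000-fold in GAM, co-cultured anaerobically 24 h with lactic acid bacteria (1×10^6 CFU/mL). C. difficile quantified by PCR on pellet DNA (95 °C 30 s; 42 cycles 95 °C 5 s/72 °C 30 s); supernatant LPS measured by ELISA.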

gut microbiota = experiment: LPS production in gut microbiota (ELISA); type: cell-based; settings: human feces culture; lactic acid bacteria 1×10^6 CFU/mL; anaerobic 24 hr
Description: Fresh human feces were suspended in anaerobic medium (GAM, Nissui Pharmaceutical Co., Ltd., Japan) and allowed to stand for 10 min. The supernatant was diluted with 10,000-fold anaerobic medium, 0.05 mL of the dilution was transplanted into 5 mL of freshly made anaerobic medium, and lactic acid bacteria (1×10^6 CFU/mL) were implanted and incubated anaerobically for 24 hr.

[2] = tested on: animals with intestinal and brain diseases induced by TNBS; experiment: Animals with intestinal and brain diseases induced by TNBS: cognitive improvement, hippocampus; type: in vivo, C57BL/6 male mice; settings: for Cognitive function Exploration (%) / Cognitive function Spont. alteration (%) / Concentration in the hippocampus IFN-γ / Concentration in the hippocampus IL-10 / Concentration in the hippocampus TNF-α: TNBS-treated mice, 1×10^9 CFU/mouse or sulfasalazine 50 mg/kg orally once a day for 5 days; for cognitive impairment caused by TNBS: result in words, summary of Table 18
Description: Indicators of this supernatant were measured using an ELISA kit (Ebioscience). […] The animal's movements were recorded, and reported as arm entries when the animal entered the arm with its hind paw, and the animal's movement was represented by an alternation, which was defined as one alternation when the animal passed through the three arms in succession. The amount of spontaneous alternation behavior was expressed as a percentage between the actual number of alternations and the maximum possible number of alternations (i.e., the total number of […] minus 2). The experiment was conducted in a box (40×40×40 cm) made so that the outside could not be seen from the inside. Two objects (A, A′) of the same shape and size were fixedly disposed in a box and the mouse was relocated to start from the center of the box. Then, the number of times the mouse made contact with the two objects was recorded for 10 minutes. After 24 hours, one of the two objects was replaced with a new object (A, B). Then, one original object and one new object were prepared, and the animal's exploration time was measured. C57BL/6 male mice (5 weeks old, 19-21 g) were divided (6 mice in each group) and acclimatized to the laboratory for 1 week. […] Meanwhile, the normal group was orally administered with 0.1 ml of physiological saline. From the next day, the mice were orally administered once a day for 5 days with lactic acid bacteria as a test sample suspended in physiological saline solution at a concentration of 1×10^9 CFU per mouse (NK210 alone (LR): 1×10^9 CFU/mouse, NK219 alone (BL): 1×10^9 CFU/mouse, NK209 alone (LL): 1×10^9 CFU/mouse, combined (MX, 210+219): NK210, 8×10^8 CFU/mouse and NK219, 2×10^8 CFU/mouse, combined (MX, 209+219) NK209, 8×10^8 CFU/mouse and NK219, 2×10^8 CFU/mouse, LR+BL+LL: NK210, 4×10^8 CFU/mouse, NK219, 2×10^8 CFU/mouse, and NK209, 4×10^8 CFU/mouse, heat treated (H—), respectively: 1×10^9 CFU/mouse). […] The day following the conclusion of sample administration, the experimental animals were sacrificed, and samples from the brain hippocampus, colon, and spleen were collected. In the Hippocampus, inflammatory indicators, such as TNF-α and IL-10, were measured using ELISA. In the colon, intestinal length and inflammatory indicators, such as TNF-α and IL-10, were measured. In the spleen, Th1 cells and Treg cells were measured by FACS (Fluorescence-Activated Cell Sorting).

Substance	Antioxidant activity [1]	Macrophage Inhibition of TNF-α expression (TNF-α)	Macrophage Induction of IL-10 expression (IL-10)	Gut microbiota Inhibition of difficile bacteria proliferation (Clostridium difficile)	Gut microbiota Inhibition of LPS production (gut microbiota)	Cognitive function Exploration (%) [2] [%]	Cognitive function Spont. alteration (%) [2] [%]	Concentration in the hippocampus IFN-γ [2] [pg/mg]	Concentration in the hippocampus IL-10 [2] [pg/mg]	Concentration in the hippocampus TNF-α [2] [pg/mg]	cognitive impairment caused by TNBS [2]	inhibiting the proliferation of intestinal Clostridium difficile (Clostridium difficile; result in words, summary of Table 2)
Lactobacillus rhamnosus NK210	+++ (very strongly (+++; >90%))	++ (strongly (++; >60-90%))	+++ (very strongly (+++; >90%))	+++ (very strongly (+++; >90%))	+++ (very strongly (+++; >90%))	74.25	62.45	26.28	38.64	12.14	improved	
Lactococcus lactis NK209	+ (weakly (+; >20-60%))	+ (weakly (+; >20-60%))	+ (weakly (+; >20-60%))	+++ (very strongly (+++; >90%))	+ (weakly (+; >20-60%))	70.20	58.8	30.81	35.53	13.54		significant effect
Bifidobacterium longum NK219	+++ (very strongly (+++; >90%))	+++ (very strongly (+++; >90%))	+++ (very strongly (+++; >90%))	+++ (very strongly (+++; >90%))	+++ (very strongly (+++; >90%))	75.37	65.32	25.02	40.26	11.93	improved	
